Holding throughout (format): in vivo
Test [1] deals with Erysiphe cichoracearum on cucumbers. Put plainly: Greenhouse trial, 4 day residual, Erysiphe cichoracearum on cucumbers. The following applies: for pest or weed control at 0.4 ppm / pest or weed control at 2 ppm / pest or weed control at 10 ppm / pest or weed control at 4 ppm / pest or weed control at 16 ppm / pest or weed control at 64 ppm / pest or weed control at 256 ppm / pest or weed control at 50 ppm: Golovinomyces cichoracearum, 96 h, read-out: Observed Efficacy. The source says:
(§1) The fungicides are applied in single treatments, or in a combination comprising a benzophenone of formula I and a compound selected from (A) through (E) as defined above. The compounds are applied in form of an aqueous spray mix obtained from a concentrated formulation or the technical material.
(§2) 1. Seed is planted in 6 cm diameter plastic pots and maintained in the greenhouse.
(§3) 2. When the primary leaf is fully expanded (in the case of cereals) or several leaves are present (in the case of dicots), formulated test compounds are sprayed with a three nozzle overhead fungicide sprayer to near run-off. Alternatively, a single nozzle overhead track sprayer is used for application of the compounds to cereals at a rate of 200 liters/ha (l/ha). Plants are then allowed to air-dry.
(§4) 3. Inoculation precedes treatment in the case of curative evaluations and follows treatment in case of residual evaluations. For inoculation of powdery mildew disease, plants are set up on greenhouse benches with bottom watering mats and inoculated by dusting them with conidia from infected plants. Between inoculation and treatment for curative evaluations and between treatment and inoculation for residual evaluations, plants are maintained in the greenhouse with bottom watering. For inoculation of non-powdery mildew diseases, an aqueous spore suspension of the pathogen is applied to the plant and the plants are kept 1-2 days in a moist infection chamber before being returned to the greenhouse where they are maintained by bottom watering.
(§5) 4. Disease on the foliage as percent leaf area with disease symptoms/signs is evaluated about 7 days after inoculation. In the case of wheat, the tips and bases of the leaves are excluded from the evaluation. [formula]
(§6) 1. Technical compounds are formulated in a solvent/surfactant system consisting of 5% acetone and 0.05% Tween 20 in deionized water. Compounds are dissolved in acetone prior to addition of the water; the Tween 20 can be added through either the acetone or the water. Dilutions are made using the solvent/surfactant system. Formulated compounds are prepared using deionized water.
(§7) Assessments of the diseases took place at the indicated day after the application of the compounds. Per cent infected leaf area infected was evaluated. The efficacy of the compounds/compounds mixtures to control the diseases was calculated by using the formula given above under item 4: […]
(§8) Synergy of a fungicide mixture was determined by comparing the actual (observed) fungicidal activity of the mixture to the expected fungicidal activity of the mixture as calculated using the COLBY formula given hereinabove.

Test [2] has as its system Puccinia recondita on wheat. In words: Greenhouse trial, 4 day residual, Puccinia recondita on wheat.
Excerpt: as §1, §2, §3, §4, §5, §6, §7, §8
Fungicidal Efficacy of the Mixture of BP-4+Other Fungicides (4 Day Residual) Against Puccinia recondita on Wheat
Fungicidal Efficacy of the Mixture of BP-4+Myclobutanil (4 Day Residual) Against Puccinia recondita on Wheat

Test [3] relates to Pyrenophora teres on barley. In words: Greenhouse trial, 4 day residual, Pyrenophora teres on barley. The following applies: 4 day residual.
Excerpt: as §1, §2, §3, §4, §5, §6, §7, §8
Fungicidal Efficacy of the Mixture of BP-4+Other Fungicides (4 Day Residual) Against Pyrenophora teres on Barley

In test [4] the test system is Leptosphaeria nodorum on wheat. Put plainly: Greenhouse trial, 4 day residual, Leptosphaeria nodorum on wheat. To be noted: Table VIII, compound alone; for pest or weed control at 4 ppm / pest or weed control at 16 ppm / pest or weed control at 64 ppm / pest or weed control at 256 ppm: Parastagonospora nodorum, 96 h, read-out: Observed Efficacy.
Excerpt: as §1, §2, §3, §4, §5, §6, §7, §8
Fungicidal Efficacy of the Mixture of BP-4+Other Fungicides (4 Day Residual) Against Leptosphaeria nodorum on Wheat

The mark [5] stands for this setting: Table XIV (Example 14), 4 day residual, dose rate 10 ppm.
Setting [6] is: Table VI, compound alone, dose rate 4 ppm.
[7] abbreviates: Table VI, compound alone, dose rate 16 ppm.
The mark [8] stands for this setting: Table VI, compound alone, dose rate 64 ppm.
[9] abbreviates: Table VI, compound alone, dose rate 256 ppm.
Where [10] appears, read: Puccinia recondita, 96 h, Table VII, compound alone, dose rate 4 ppm, read-out: Observed Efficacy.
Where [11] appears, read: Puccinia recondita, 96 h, Table VII, compound alone, dose rate 16 ppm, read-out: Observed Efficacy.
Setting [12] is: Puccinia recondita, 96 h, Table VII, compound alone, dose rate 64 ppm, read-out: Observed Efficacy.
Setting [13] is: Puccinia recondita, 96 h, Table VII, compound alone, dose rate 256 ppm, read-out: Observed Efficacy.
Setting [14] is: Table XI, compound alone, dose rate 0.4 ppm.
Where [15] appears, read: Table XI, compound alone, dose rate 2 ppm.
Setting [16] is: Table XI, compound alone, dose rate 10 ppm.
[17] abbreviates: Table XI, compound alone, dose rate 50 ppm.
The mark [18] stands for this setting: Pyrenophora teres, 96 h, Table XIII (Example 13), dose rate 2 ppm, read-out: Observed Efficacy.
Setting [19] is: Table VII, compound alone, dose rate 4 ppm.
The mark [20] stands for this setting: Table VII, compound alone, dose rate 16 ppm.
The mark [21] stands for this setting: Table VII, compound alone, dose rate 64 ppm.
[22] abbreviates: Table VII, compound alone, dose rate 256 ppm.
The mark [23] stands for this setting: Table XIII (Example 13), dose rate 0.4 ppm.
The mark [24] stands for this setting: Table XIII (Example 13), dose rate 2 ppm.
[25] abbreviates: Table XIII (Example 13), dose rate 10 ppm.
Where [26] appears, read: Table XIII (Example 13), dose rate 50 ppm.

Like-named read-outs stand apart in the source and are kept apart here.

For `CCCN(CC)CC1COC2(CCC(C(C)(C)C)CC2)O1` (stereo not drawn) [Spiroxamine], the pest or weed control at 0.4 ppm in test [1] (Table XIV (Example 14), 4 day residual, dose rate 0.4 ppm) was determined as 0%; in test [3] (Pyrenophora teres, 96 h, Table XVI (Example 16), dose rate 0.4 ppm, read-out: Observed Efficacy), 0%. Moreover, the pest or weed control at 2 ppm in test [1] (Table XIV (Example 14), 4 day residual, dose rate 2 ppm) came out at 0%; in test [2] (Puccinia recondita, 96 h, Table XV (Example 15), 4 day residual, dose rate 2 ppm, read-out: Observed Efficacy), 0%; in test [3] (Pyrenophora teres, 96 h, Table XVI (Example 16), dose rate 2 ppm, read-out: Observed Efficacy), 3%. Further, the pest or weed control at 10 ppm was 2% in test [1] (setting [5]); 4% in test [2] (Puccinia recondita, 96 h, Table XV (Example 15), 4 day residual, dose rate 10 ppm, read-out: Observed Efficacy); 5% in test [3] (Pyrenophora teres, 96 h, Table XVI (Example 16), dose rate 10 ppm, read-out: Observed Efficacy). Moreover, the pest or weed control at 50 ppm in test [2] (Puccinia recondita, 96 h, Table XV (Example 15), 4 day residual, dose rate 50 ppm, read-out: Observed Efficacy) worked out at 17%; in test [3] (Pyrenophora teres, 96 h, Table XVI (Example 16), dose rate 50 ppm, read-out: Observed Efficacy), 16%.
Dinocap: the “Observed Efficacy” value in test [1] (setting [5]) was 0; in test [2] (Table XV (Example 15), 4 day residual, dose rate 50 ppm), 54; in test [3] (Table XVI (Example 16), dose rate 50 ppm), 22.
With `N#Cc1sc2c(=O)c3ccccc3c(=O)c=2sc1C#N` [Dithianon], the figures for the pest or weed control at 4 ppm in test [1] (setting [6]), in test [2] (setting [10]) and in test [4] (dose rate 4 ppm) were 0%, 4% and 0%, respectively. In addition, the pest or weed control at 16 ppm amounted to 0% in test [1] (setting [7]), 16% in test [2] (setting [11]) and 1% in test [4] (dose rate 16 ppm). Further, the pest or weed control at 64 ppm amounted to 0% in test [1] (setting [8]), 84% in test [2] (setting [12]) and 37% in test [4] (dose rate 64 ppm). The results for the pest or weed control at 256 ppm in test [1] (setting [9]), in test [2] (setting [13]) and in test [4] (dose rate 256 ppm) were 0%, 95% and 74%, respectively.
For `CC(Cc1ccc(C(C)(C)C)cc1)CN1CCCCC1` (stereo not drawn) [Fenpropidin], the pest or weed control at 4 ppm in test [1] (setting [6]) and in test [2] (setting [10]) was 0% in each case. Also, the pest or weed control at 16 ppm in test [1] (setting [7]) is 6%; in test [2] (setting [11]) it was 0%. Moreover, the pest or weed control at 64 ppm in test [1] (setting [8]) stood at 21%; in test [2] (setting [12]), 8%; in test [4] (dose rate 64 ppm), 0%. Further, the figures for the pest or weed control at 256 ppm in test [1] (setting [9]), in test [2] (setting [13]) and in test [4] (dose rate 256 ppm) were 69%, 97% and 21%, respectively.
Take `CO/N=C(/C(=O)OC)c1ccccc1COc1ccccc1C` [Kresoxim-methyl]: the pest or weed control at 0.4 ppm in test [1] (setting [14]) was 2%; in test [3] (Pyrenophora teres, 96 h, Table XIII (Example 13), dose rate 0.4 ppm, read-out: Observed Efficacy), 0%. Moreover, the pest or weed control at 2 ppm in test [1] (setting [15]) is 14%; in test [3] (setting [18]), 21%. The pest or weed control at 10 ppm in test [1] (setting [16]) worked out at 88%. Besides, the pest or weed control at 50 ppm in test [1] (setting [17]) amounted to 100%.
As for Quinoxyfen, the “Observed Efficacy” value is given as 90% in test [1] (setting [6]); 100% in test [1] (setting [7]); 100% in test [1] (setting [8]); 100% in test [1] (setting [9]); 0% in test [2] (setting [19]); 0% in test [2] (setting [20]). For the same compound, the “Observed Efficacy” value in test [2] (setting [21]) worked out at 0%; in test [2] (setting [22]), 0%; in test [4] (dose rate 16 ppm) it was 1%; in test [4] (dose rate 64 ppm), 0%; in test [4] (dose rate 256 ppm), 18%.
On to `S1SSSSSSS1` [Sulfur organic, Sulfur], for which, in test [1] (setting [14]), the pest or weed control at 0.4 ppm is 0%. For the same compound, the pest or weed control at 2 ppm in test [1] (setting [15]) and in test [3] (setting [18]) was 0% throughout. In addition, the pest or weed control at 10 ppm turned out to be 7% in test [1] (setting [16]) and 0% in test [3] (Pyrenophora teres, 96 h, Table XIII (Example 13), dose rate 10 ppm, read-out: Observed Efficacy). The pest or weed control at 50 ppm in test [1] (setting [17]) is 0%.
In the case of `[Cl-].[Cu+2].[Cu+2].[OH-].[OH-].[OH-]` [Copper oxychloride], the “Observed Efficacy” value in test [3] (setting [23]) is on record as 0; in test [3] (setting [24]) it was 0; in test [3] (setting [25]), 14; in test [3] (setting [26]), 14.
Turning to Propiconazole, the “Observed Efficacy” value was found to be 0% in test [1] (setting [14]); 19% in test [1] (setting [15]); 76% in test [1] (setting [16]); 96% in test [1] (setting [17]); 0 in test [3] (setting [23]); 0 in test [3] (setting [24]). The results for the “Observed Efficacy” value in test [3] (setting [25]) and in test [3] (setting [26]) were 38 and 74, respectively.
Take Mancozeb: the “Observed Efficacy” value in test [1] (setting [6]) is 0%; in test [1] (setting [7]), 0%; in test [1] (setting [8]) it was 1%; in test [1] (setting [9]) it was 33%; in test [2] (setting [19]), 0%; in test [2] (setting [20]), 0%. In addition, the “Observed Efficacy” value is 28% in test [2] (setting [21]); 91% in test [2] (setting [22]); 0% in test [4] (dose rate 4 ppm); 21% in test [4] (dose rate 16 ppm); 47% in test [4] (dose rate 64 ppm); 69% in test [4] (dose rate 256 ppm).
As to Cyprodinil, the “Observed Efficacy” value in test [1] (setting [6]) was found to be 0%; in test [1] (setting [7]), 0%; in test [1] (setting [8]) it was 0%; in test [1] (setting [9]), 15%; in test [2] (setting [19]) it was 0%; in test [2] (setting [20]), 0%. Moreover, the “Observed Efficacy” value in test [2] (setting [21]) is 0%; in test [2] (setting [22]), 0%; in test [4] (dose rate 4 ppm), 0%; in test [4] (dose rate 16 ppm) it was 75%; in test [4] (dose rate 64 ppm), 88%; in test [4] (dose rate 256 ppm), 93%.
For `COc1ccc(C(=CC(=O)N2CCOCC2)c2ccc(Cl)cc2)cc1OC` [Dimethomorph], the pest or weed control at 4 ppm in test [1] (setting [6]) stood at 0%; in test [4] (dose rate 4 ppm), 1%. Further, the figures for the pest or weed control at 16 ppm in test [1] (setting [7]), in test [2] (setting [11]) and in test [4] (dose rate 16 ppm) were 0%, 0% and 6%, respectively. Further, the results for the pest or weed control at 64 ppm in test [1] (setting [8]), in test [2] (setting [12]) and in test [4] (dose rate 64 ppm) were 0%, 0% and 11%, respectively. Further, the pest or weed control at 256 ppm stood at 18% in test [1] (setting [9]), 0% in test [2] (setting [13]) and 14% in test [4] (dose rate 256 ppm).

The record behind these values is patent US6346535B1, “Fungicidal mixtures” (American Cyanamid Company, priority 1999, dated 2002).
